Reference: patent US6740640B2, “Sulfofucosylacylglycerol derivatives and administration thereof as medicaments” (Toyo Suisan Kaisha, Ltd., priority 1999, dated 2004)
Where a name gives a salt, the structure may show the parent alone.

Tests used:
Colon cancer cells DLD-1 = assay: Anticancer activity against cultured colon cancer cells (MTT assay); type: cell-based; settings: Homo sapiens, DLD-1, 48 hour cultivation
Protocol: An assay on anticancer activity against cultured colon cancer cells was carried out in the following manner.
(§1) Colon cancer cells DLD-1 were maintained and subcultured in RPMI 1640 medium (containing 10% calf serum). Each of the test compounds (SFAG1 to SFAG3 shown in Table 1) was suspended and diluted in the medium, and then the cancer cells were cultivated together with the medium in a 96-well plate at 3×10^3 cells/well. After 48 hour cultivation, the MTT assay (Mosmann, T: Journal of Immunological Method, 65, 55-63 (1983)) was carried out to compare survival rates.
The results are shown as IC50 in Table 2 below.

[1] = tested on: gastric cancer cells NUGC-3; assay: Anticancer activity against cultured gastric cancer cells (MTT assay); type: cell-based; settings: Homo sapiens, NUGC-3, 48 hour cultivation
Protocol: as §1
An assay on anticancer activity against cultured gastric cancer cells was carried out in the same manner as in the Assay 2 except that gastric cancer cells NUGC-3 were used instead of the colon cancer cells DLD-1.
The results are shown as IC50 in Table 3 below.

DNA polymerase α = target: T1, DNA polymerase α (Bos taurus, UniProt A0AAA9TD94); assay: Inhibitory effect against DNA polymerase α ([3H]-dTTP incorporation); type: biochemical; settings: DNA polymerase α from bovine thymus, 0.05 U, 37° C. for 60 minutes
T1 construct: from tissue; host or cells: bovine thymus
T1 sequence (A0AAA9TD94 1-1441): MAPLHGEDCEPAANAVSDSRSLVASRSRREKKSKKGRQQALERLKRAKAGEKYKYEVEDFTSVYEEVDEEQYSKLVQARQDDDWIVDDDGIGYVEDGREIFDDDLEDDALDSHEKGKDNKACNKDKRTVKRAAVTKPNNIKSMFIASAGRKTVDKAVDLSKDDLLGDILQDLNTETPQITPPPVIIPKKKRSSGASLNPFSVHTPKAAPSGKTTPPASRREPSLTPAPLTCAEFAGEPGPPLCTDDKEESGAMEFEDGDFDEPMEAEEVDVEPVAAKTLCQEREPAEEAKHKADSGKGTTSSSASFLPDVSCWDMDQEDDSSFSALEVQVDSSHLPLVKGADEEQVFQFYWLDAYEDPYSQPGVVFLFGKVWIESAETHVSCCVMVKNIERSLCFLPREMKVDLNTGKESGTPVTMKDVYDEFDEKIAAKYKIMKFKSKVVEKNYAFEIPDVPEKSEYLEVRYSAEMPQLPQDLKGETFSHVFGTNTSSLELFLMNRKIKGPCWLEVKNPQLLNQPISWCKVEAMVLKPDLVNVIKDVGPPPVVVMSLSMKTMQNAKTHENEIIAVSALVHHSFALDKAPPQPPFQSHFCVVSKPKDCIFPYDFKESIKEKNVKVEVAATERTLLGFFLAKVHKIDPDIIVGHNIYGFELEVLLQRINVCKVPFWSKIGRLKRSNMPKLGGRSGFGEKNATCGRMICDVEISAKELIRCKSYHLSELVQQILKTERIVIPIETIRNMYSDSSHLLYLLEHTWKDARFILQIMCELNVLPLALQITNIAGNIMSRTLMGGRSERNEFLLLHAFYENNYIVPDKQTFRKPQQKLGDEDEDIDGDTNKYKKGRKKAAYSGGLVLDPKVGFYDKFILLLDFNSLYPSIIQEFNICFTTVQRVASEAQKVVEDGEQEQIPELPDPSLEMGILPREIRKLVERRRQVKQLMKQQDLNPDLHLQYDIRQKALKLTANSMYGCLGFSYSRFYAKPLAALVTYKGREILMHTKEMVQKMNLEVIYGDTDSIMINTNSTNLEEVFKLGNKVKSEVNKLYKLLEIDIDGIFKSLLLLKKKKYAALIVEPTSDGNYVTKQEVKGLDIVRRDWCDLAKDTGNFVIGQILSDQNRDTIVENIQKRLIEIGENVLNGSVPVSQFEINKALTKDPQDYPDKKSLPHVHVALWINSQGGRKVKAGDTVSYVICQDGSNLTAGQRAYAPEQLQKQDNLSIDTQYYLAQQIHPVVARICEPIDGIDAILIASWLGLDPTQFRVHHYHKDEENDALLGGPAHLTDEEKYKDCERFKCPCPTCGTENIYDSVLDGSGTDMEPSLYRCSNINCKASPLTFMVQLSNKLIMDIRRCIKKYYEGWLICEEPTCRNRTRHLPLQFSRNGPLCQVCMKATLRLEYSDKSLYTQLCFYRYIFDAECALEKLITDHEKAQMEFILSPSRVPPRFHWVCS
Protocol: An assay on inhibitory effect against a DNA polymerase α was carried out in the following manner.
Each mixture was added with a buffer containing inorganic salts for the enzymatic reaction, [^3H]-labeled dTTP and compounds for reaction containing a template DNA strand, and incubated at 37° C. for 60 minutes.
After the enzymatic reaction was quenched, the resultant reaction product was fixed on a dedicated filter and subjected to measurement by a liquid scintillation counter. The amount of enzymatically incorporated dTTP was calculated as a radiation dose (cpm) of [^3H]. Note that, each of the sulfofucosylacylglycerol derivatives is a mixture of the S- and R-configurations with respect to an absolute configuration of the carbon of the 2-position of the glycerol moiety.
The results are shown as IC50 in Table 1 below.

Row | Compound | IC50 (Colon cancer cells DLD-1) | IC50 [1] | IC50 (DNA polymerase α)
1 | CCCCCCCCCCCCCC(=O)OCC(O)CO[C@H]1O[C@H](CS(=O)(=O)[O-])[C@H](O)[C@H](O)[C@H]1O.[Na+] (stereo partly drawn) [SFAG1, 3-O-(6-deoxy-6-sulfo-α-D-galactopyranosyl)-1-O-myristoyl-glycerol sodium salt] | 44 µg/mL | 44.3 µg/mL | 7.63 µM
2 | CCCCCCCCCCCCCCCC(=O)OCC(O)CO[C@H]1O[C@H](CS(=O)(=O)[O-])[C@H](O)[C@H](O)[C@H]1O.[Na+] (stereo partly drawn) [SFAG2, 3-O-(6-deoxy-6-sulfo-α-D-galactopyranosyl)-1-O-palmitoyl-glycerol sodium salt] | 41.5 µg/mL | 41.7 µg/mL | 8.64 µM
3 | CCCCCCCCCCCCCCCCCC(=O)OCC(O)CO[C@H]1O[C@H](CS(=O)(=O)[O-])[C@H](O)[C@H](O)[C@H]1O.[Na+] (stereo partly drawn) [SFAG3, 3-O-(6-deoxy-6-sulfo-α-D-galactopyranosyl)-1-O-stearoyl-glycerol sodium salt] | 27.5 µg/mL | 30.3 µg/mL | 8.24 µM
4 | CCCCCCCCCCCCCC(=O)OCC(CO[C@H]1O[C@H](CS(=O)(=O)O)[C@H](O)[C@H](O)[C@H]1O)OC(=O)CCCCCCCCCCCCC (stereo partly drawn) [SFAG4, 3-O-(6-deoxy-6-sulfo-α-D-galactopyranosyl)-1,2-di-O-myristoyl-glycerol sodium salt] | – | – | 0.657 µM
5 | CCCCCCCCCCCCCCCC(=O)OCC(CO[C@H]1O[C@H](CS(=O)(=O)O)[C@H](O)[C@H](O)[C@H]1O)OC(=O)CCCCCCCCCCCCCCC (stereo partly drawn) [SFAG5, 3-O-(6-deoxy-6-sulfo-α-D-galactopyranosyl)-1,2-di-O-palmitoyl-glycerol sodium salt] | – | – | 0.551 µM
6 | CCCCCCCCCCCCCCCCCC(=O)OCC(CO[C@H]1O[C@H](CS(=O)(=O)O)[C@H](O)[C@H](O)[C@H]1O)OC(=O)CCCCCCCCCCCCCCCCC (stereo partly drawn) [SFAG6, 3-O-(6-deoxy-6-sulfo-α-D-galactopyranosyl)-1,2-di-O-stearoyl-glycerol sodium salt] | – | – | 0.458 µM
